≈ marks a conversion by molar mass, not a printed value.
Tested on: Mycobacterium tuberculosis
Assay: Antimycobacterial activity against multidrug-resistant Mycobacterium tuberculosis XDR 173 by BACTEC 460 radiometric method
Type: functional

SMILES	MIC [µM]
CC(C)=CCC/C(C)=C/CNCCNC1C2CC3CC(C2)CC1C3 (centres undefined) [SQ109]	0.5 (≈ 0.165 µg/mL)
CC(C)CCCC(C)CCCC(C)CCNCCNC1C2CC3CC(C2)CC1C3 (centres undefined)	1 (≈ 0.405 µg/mL)
CC(C)=CCC/C(C)=C/CC/C(C)=C/CNCCNC1C2CC3CC(C2)CC1C3 (centres undefined)	0.25 (≈ 0.0997 µg/mL)
CC(C)CCCC(C)CCNCCNC12CC3CC(CC(C3)C1)C2 (centres undefined)	0.5 (≈ 0.167 µg/mL)

From ChEMBL document CHEMBL1157865, “Synthesis and evaluation of SQ109 analogues as potential anti-tuberculosis candidates” (2010)
